From patent publication US11453683B1, “KRas G12D inhibitors” (Mirati Therapeutics, Inc., priority 2019, dated 2022)
Structures can show the parent of a compound that is named as a salt.

tested on: KRas G12D-mediated phosphorylation of ERK; experiment: Inhibition of KRas G12D-mediated phosphorylation of ERK in AGS cells; type: cell-based; details: Homo sapiens; AGS cells expressing G12D, 3 hours, phospho-ERK normalized to GAPDH
Outline: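 In-cell Western: p-ERK Thr202/Tyr204 signal over GAPDH, as % of DMSO control, with IC50 from a 4-parameter curve. AGS cells seeded 40,000/well for 12-14 h, exposed to compound 3 h at 0.5% DMSO final, then formaldehyde-fixed and methanol-permeabilized.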

`Fc1c(-c2cccc3cccc(Cl)c23)ncc2c(N3CC4CCC(C3)N4)nc(OCC34CCCN3C[C@H](F)C4)nc12` (stereo partly drawn) [Example 226, 4-((1R,5S)-3,8-diazabicyclo[3.2.1]octan-3-yl)-7-(8-chloronaphthalen-1-yl)-8-fluoro-2-((2-fluorotetrahydro-1H-pyrrolizin-7a(5H)-yl)methoxy)pyrido[4,3-d]pyrimidine bis-hydrochloride] was tested. Which IC50 did it give?
Its IC50 is 6750 nM.

For `CC(=O)N1CCC(Oc2nc(N3C[C@H]4CC[C@@H](C3)N4)c3cnc(-c4cc(O)cc5ccccc45)c(F)c3n2)CC1` [Example 78, 1-(4-((4-((1R,5S)-3,8-diazabicyclo[3.2.1]octan-3-yl)-8-fluoro-7-(3-hydroxynaphthalen-1-yl)pyrido[4,3-d]pyrimidin-2-yl)oxy)piperidin-1-yl)ethan-1-one], which IC50 is on record?
Its IC50 is greater than 16700 nM.

`CCc1c(F)ccc2cccc(-c3ncc4c(N5CC6CCC(C5)N6)nc(OC[C@@]56CCCN5C[C@H](F)C6)nc4c3F)c12` (stereo in doubt) [Example 381, 4-((1R,5S)-3,8-diazabicyclo[3.2.1]octan-3-yl)-7-(8-ethyl-7-fluoronaphthalen-1-yl)-8-fluoro-2-((2-fluorotetrahydro-1H-pyrrolizin-7a(5H)-yl)methoxy)pyrido[4,3-d]pyrimidine] was tested. Which IC50 did it give?
Its IC50 is 708 nM.

With `Cc1cccc(-c2ncc3c(N4C[C@H]5CC[C@@H](C4)N5)nc(OCC45CCCN4CCC5)nc3c2F)c1C(C)C` [Example 301, 4-((1R,5S)-3,8-diazabicyclo[3.2.1]octan-3-yl)-8-fluoro-2-((hexahydro-1H-pyrrolizin-7a-yl)methoxy)-7-(2-isopropyl-3-methylphenyl)pyrido[4,3-d]pyrimidine] as the compound, how does the IC50 read?
Its IC50 is 3170 nM.

How did the IC50 turn out when `Oc1cc(-c2ncc3c(N4C[C@H]5CC[C@@H](C4)N5)nc(N4CC5(CCOCC5)C4)nc3c2F)c2ccccc2c1` [Example 74, 4-(4-((1R,5S)-3,8-diazabicyclo[3.2.1]octan-3-yl)-8-fluoro-2-(7-oxa-2-azaspiro[3.5]nonan-2-yl)pyrido[4,3-d]pyrimidin-7-yl)naphthalen-2-ol] was run?
Its IC50 is 5470 nM.

For `CN1CCC[C@H]1COc1nc(N2CC3CCC(C2)N3)c2cnc(-c3c(Cl)c(O)cc4ccccc34)c(F)c2n1` [Example 337, 4-(4-(3,8-diazabicyclo[3.2.1]octan-3-yl)-8-fluoro-2-(((S)-1-methylpyrrolidin-2-yl)methoxy)pyrido[4,3-d]pyrimidin-7-yl)-3-chloronaphthalen-2-ol], which IC50 is on record?
Its IC50 is 1620 nM.

With `CN(C)CCOc1nc(N2C[C@H]3CC[C@@H](C2)N3)c2cnc(-c3cc(O)cc4ccccc34)c(F)c2n1` [Example 18, 4-(4-((1R,5S)-3,8-diazabicyclo[3.2.1]octan-3-yl)-2-(2-(dimethylamino)ethoxy)-8-fluoropyrido[4,3-d]pyrimidin-7-yl)naphthalen-2-ol] as the compound, how does the IC50 read?
The IC50 was 3740 nM.

For `Cc1nccn1CCOc1nc(N2CC3CCC(C2)N3)c2cnc(-c3cc(O)cc4ccccc34)c(F)c2n1` [Example 84, 4-(4-((1R,5S)-3,8-diazabicyclo[3.2.1]octan-3-yl)-8-fluoro-2-(2-(2-methyl-1H-imidazol-1-yl)ethoxy)pyrido[4,3-d]pyrimidin-7-yl)naphthalen-2-ol], which IC50 is on record?
The IC50 was 5720 nM.

Which IC50 does the source give for `CN(C)C(=O)OC[C@H]1CC[C@@]2(COc3nc(N4CC5CCC(C4)N5)c4cnc(-c5cccc6cccc(Cl)c56)c(F)c4n3)CCCN12` [Example 405, (7a-(((4-(3,8-diazabicyclo[3.2.1]octan-3-yl)-7-(8-chloronaphthalen-1-yl)-8-fluoropyrido[4,3-d]pyrimidin-2-yl)oxy)methyl)hexahydro-1H-pyrrolizin-3-yl)methyl dimethylcarbamate] here?
Its IC50 is 297 nM.

`N#Cc1cccc2cccc(-c3ncc4c(N5C[C@H]6CC[C@@H](C5)N6)nc(OCC56CCCN5CCC6)nc4c3F)c12` [Example 198, 8-(4-((1R,5S)-3,8-diazabicyclo[3.2.1]octan-3-yl)-8-fluoro-2-((tetrahydro-1H-pyrrolizin-7a(5H)-yl)methoxy)pyrido[4,3-d]pyrimidin-7-yl)-1-naphthonitrile] was tested. Which IC50 did it give?
The IC50 was 2430 nM.

For `Fc1c(-c2c(OC(F)(F)F)ccc3[nH]ncc23)ncc2c(N3C[C@H]4CC[C@@H](C3)N4)nc(OCC34CCCN3CCC4)nc12` [Example 258, 4-((1R,5S)-3,8-diazabicyclo[3.2.1]octan-3-yl)-8-fluoro-2-((hexahydro-1H-pyrrolizin-7a-yl)methoxy)-7-(5-(trifluoromethoxy)-1H-indazol-4-yl)pyrido[4,3-d]pyrimidine], which IC50 is on record?
The IC50 was 1460 nM.

Which IC50 does the source give for `C#Cc1cccc2cc(O)cc(-c3ncc4c(N5C[C@H]6CC[C@@H](C5)N6)nc(OC[C@@]56CCCN5C[C@H](F)C6)nc4c3F)c12` [Example 243, 4-(4-((1R,5S)-3,8-diazabicyclo[3.2.1]octan-3-yl)-8-fluoro-2-(((2R,7aS)-2-fluorohexahydro-1H-pyrrolizin-7a-yl)methoxy)pyrido[4,3-d]pyrimidin-7-yl)-5-ethynylnaphthalen-2-ol] here?
Its IC50 is 0.8 nM.

`CN1CCC[C@H]1CCOc1nc(N2C[C@H]3CC[C@@H](C2)N3)c2cnc(-c3cc(O)cc4ccccc34)c(F)c2n1` [Example 10, 4-(4-((1R,5S)-3,8-diazabicyclo[3.2.1]octan-3-yl)-8-fluoro-2-(2-((S)-1-methylpyrrolidin-2-yl)ethoxy)pyrido[4,3-d]pyrimidin-7-yl)naphthalen-2-ol] was tested. Which IC50 did it give?
Its IC50 is 8120 nM.

`CCCc1cccc2cccc(-c3ncc4c(N5C[C@H]6CC[C@@H](C5)N6)nc(OCC56CCCN5CCC6)nc4c3F)c12` [Example 254, 4-((1R,5S)-3,8-diazabicyclo[3.2.1]octan-3-yl)-8-fluoro-2-((hexahydro-1H-pyrrolizin-7a-yl)methoxy)-7-(8-propylnaphthalen-1-yl)pyrido[4,3-d]pyrimidine] was tested. Which IC50 did it give?
The IC50 was 2430 nM.

For `Fc1c(-c2cccc3cccc(Cl)c23)ncc2c(N3CC4CCC(C3)N4)nc(OC[C@]34CCCN3C[C@H](c3ccccc3)C4)nc12` (stereo in doubt) [Example 221, 4-((1R,5S)-3,8-diazabicyclo[3.2.1]octan-3-yl)-7-(8-chloronaphthalen-1-yl)-8-fluoro-2-((2-phenyltetrahydro-1H-pyrrolizin-7a(5H)-yl)methoxy)pyrido[4,3-d]pyrimidine bis-hydrochloride salt], which IC50 is on record?
Its IC50 is 15800 nM.

`CN1CCC[C@H]1COc1nc(N2CC3CCC(C(N)=O)(C2)N3)c2cnc(-c3cc(O)cc4ccccc34)c(F)c2n1` (stereo partly drawn) [Example 159, 3-(8-fluoro-7-(3-hydroxynaphthalen-1-yl)-2-(((S)-1-methylpyrrolidin-2-yl)methoxy)pyrido[4,3-d]pyrimidin-4-yl)-3,8-diazabicyclo[3.2.1]octane-1-carboxamide bis(2,2,2-trifluoroacetate)] was tested. Which IC50 did it give?
The IC50 was greater than 16700 nM.

Which IC50 does the source give for `CCc1cccc2cc(O)cc(-c3ncc4c(N5CC6CCC(C5)N6)nc(OC[C@]56CCCN5[C@@H](COC(=O)N(C)C)CC6)nc4c3F)c12` [Example 434, 7a-(((4-((1R,5S)-3,8-diazabicyclo[3.2.1]octan-3-yl)-7-(8-ethyl-3-hydroxynaphthalen-1-yl)-8-fluoropyrido[4,3-d]pyrimidin-2-yl)oxy)methyl)hexahydro-1H-pyrrolizin-3-yl)methyl dimethyl carbamate] here?
Its IC50 is 6.7 nM.

How did the IC50 turn out when `C#Cc1c(F)ccc2cccc(-c3ncc4c(N5C[C@H]6CC[C@@H](C5)N6)nc(OCC56CCCN5CCC6)nc4c3F)c12` [Example 189, 4-((1R,5S)-3,8-diazabicyclo[3.2.1]octan-3-yl)-7-(8-ethynyl-7-fluoronaphthalen-1-yl)-8-fluoro-2-((tetrahydro-1H-pyrrolizin-7a(5H)-yl)methoxy)pyrido[4,3-d]pyrimidine] was run?
Its IC50 is 24.1 nM.
